The record followed here is US20190011433A1, “CELL CO-CULTURE SYSTEMS AND USES THEREOF” (Dana-Farber Cancer Institute, Inc., priority 2007, published 2019).

“Also recorded” adds a separate entry of the source.

Experiment [1] concerns MM-1S-GFP-luc myeloma cells. The experiment can be described thus: CS-BLI drug sensitivity of MM-1S-GFP-luc cells in presence vs absence of stromal cells. Type of experiment: cell-based, human. The method, then:
Luciferin (7.5 mg/mL; Xenogen Corp, Alameda, Calif.) was added at the volume stated in each experiment. Cell viability and the precise cell counts were established by Trypan blue exclusion assay immediately before plating of the cells. Compartment-specific bioluminescence emitted by individual wells of these plates was measured with two different bioluminescence imaging modalities, namely a Xenogen IVIS® Imaging System (FIG. 1A and FIG. 1B) and a standard luminometer plate reader—Luminoskan luminometer (Labsystems, MA) (FIG. 1C). The results with each method were analyzed for the linearity of the bioluminescent signal vs. cell number using the Living Image® software (Xenogen Corp, Alameda Calif.).

Experiment [2] has as its system KU812F-luc leukemia cells. The experiment in a line: CS-BLI drug sensitivity of KU812F-luc leukemia cells in presence vs absence of HS-5 BMSCs. Type of experiment: cell-based. The conditions noted are these: presence vs absence of HS-5 BMSCs (10,000 per well). The source says: In another set of experiments, Applicants tested and observed similar protective/sensitization effect of stroma cell on KU812F-luc cells on various drugs (data not shown).
(§1) Applicants expanded the application of in vitro compartment-specific bioluminescence imaging assays beyond the MM cells to other tumor models, namely a few leukemic cell lines. Applicants specifically tested luciferase-expressing K562-luc-neo and KU812F-luc-neo leukemic cells against standard anti-leukemia agents, including AraC and Doxo, in the presence vs. absence of HS-5 stromal cells (FIG. 7A and FIG. 7B).

The subject of the next experiment is K562-luc leukemia cells. The experiment in a line: CS-BLI drug sensitivity of K562-luc leukemia cells in presence vs absence of HS-5 BMSCs. Type of experiment: cell-based. The conditions noted are these: presence vs absence of HS-5 BMSCs (10,000 per well).
Text: as §1

Experiment [3] relates to MDA-MB-231met-luc-neo cells. The experiment in a line: CS-BLI drug sensitivity of MDA-MB-231met-luc-neo cells alone or with HS-5 BMSCs. In kind it is cell-based. The conditions noted are these: MDA-MB-231met-luc-neo alone or with HS-5 BMSCs (10,000/well), 48 hrs. The method, then:
(§2) MDA-MB-231met-luc-neo (FIG. 18A, FIG. 18B), A375-luc-neo (FIG. 18C, FIG. 18D) and FRO-luc-neo (FIG. 18E, FIG. 18F) cells were plated either alone or mixed with HS-5 BMSCs (10,000 /well) and treated the following day. The cultures of tumor cells and their co-cultures with BMSCs were incubated for an additional 48 hrs.

The next experiment concerns A375-luc-neo cells. The experiment can be described thus: CS-BLI drug sensitivity of A375-luc-neo cells alone or with HS-5 BMSCs. Type of experiment: cell-based. As to conditions: A375-luc-neo alone or with HS-5 BMSCs (10,000/well), 48 hrs. The method, then:
as §2

Another experiment relates to FRO-luc-neo cells. The experiment can be described thus: CS-BLI drug sensitivity of FRO-luc-neo cells alone or with HS-5 BMSCs. In kind it is cell-based. The conditions noted are these: FRO-luc-neo alone or with HS-5 BMSCs (10,000/well), 48 hrs. As to the method: as §2
Experiment [4] has as its system MM-1S-GFP-luc myeloma cells. The experiment in a line: Flow cytometry (Apo2.7) drug sensitivity testing in tumor-stromal co-culture. The conditions noted are these: Doxo 250 ng/mL, 48 hrs. Type of experiment: cell-based, human. The method, then:
Applicants also evaluated the anti-tumor effects of these drugs in the presence of stromal cells, and compared the results obtained with in vitro compartment-specific bioluminescence vs. flow cytometric evaluation of drug-induced cell death. Specifically, luciferase-expressing MM cells were treated in vitro with Doxo (250 ng/mL) or vehicle, in the absence vs. presence of bone marrow stromal cells (BMSCs). For flow cytometry-based drug sensitivity testing in tumor-stromal co-culture, tumor cell viability in the presence vs. absence of stromal cells was evaluated by flow cytometry. Specifically, after incubation with drug or vehicle, MM-1S-GFP-luc myeloma cells were stained with Apo2.7 (BD Biosciences) to detect apoptotic cells. GFP positive myeloma cells were gated to distinguish them from GFP negative stromal cells in the co-cultures. The ratio of Apo2.7 positive cells in the GFP^+ compartment of the drug-treated condition vs. the vehicle-treated condition provided a quantified expression of viable cells in response to drug treatment. […] These flow cytometric results were consistent with results obtained with CS-BLI based applications as described in Example III.

Experiment [5] relates to MM-1R-GFP-luc myeloma cells. The experiment can be described thus: CS-BLI drug sensitivity of MM-1R-GFP-luc cells in presence vs absence of stromal cells. The conditions noted are these: MM-1R-GFP-luc (Dex-resistant), presence vs absence of HS-5 BMSCs (10,000 per well).

As to `COc1cccc2c1C(=O)c1c(O)c3c(c(O)c1C2=O)C[C@@](O)(C(=O)CO)C[C@@H]3O[C@H]1C[C@H](N)[C@H](O)[C@H](C)O1` [Doxo, Doxorubicin], the “effect of BMSC co-culture on tumor cell response to drug (protection)” value in experiment [1] (presence vs absence of HS-5 BMSCs (10,000 per well)) is reported as “attenuated the responses; also recorded: conferred protection; also recorded: confer protection”; in experiment [1] (presence vs absence of KM101, KM103, KM104, KM105 BMSC lines, Doxo 0-250 ng/mL), “protective effects; also recorded: conferred protection”; in experiment [2] it was “did not affect their response”; in the experiment with K562-luc leukemia cells, “do not confer protection”; in experiment [3], “modest protection”; in the experiment on A375-luc-neo cells it was “no protection”. Moreover, the results for the “effect of BMSC co-culture on tumor cell response to drug (protection)” value (in the experiment with FRO-luc-neo cells; in experiment [5]) were “modest protection” and “attenuated the responses; also recorded: confer protection”, respectively. Also, the “Apo2.7 expression in GFP+ myeloma cells, co-culture with HS-5 vs absence of stroma” value in experiment [4] is “decreased expression of Apo2.7”.
